Laboratory results from ChEMBL document CHEMBL3046348, “Synthesis and antimicrobial screening of novel 2,6-ditertiarybutylpiperidin-4-ones” (2012).
In brackets after ≈: the same amount, converted by molar mass.

Experiments:
Assay type in all cases: functional
Trichoderma = assay: Antifungal activity against Trichoderma sp after 72 to 96 hr by serial dilution method
Klebsiella pneumoniae = assay: Antibacterial activity against Klebsiella pneumoniae after 24 hr by serial dilution method
Escherichia coli = assay: Antibacterial activity against Escherichia coli after 24 hr by serial dilution method
Aspergillus niger = assay: Antifungal activity against Aspergillus niger after 72 to 96 hr by serial dilution method
Bacillus subtilis = assay: Antibacterial activity against Bacillus subtilis after 24 hr by serial dilution method

| Compound | MIC (Trichoderma) [µg/mL] | MIC (Klebsiella pneumoniae) [µg/mL] | MIC (Escherichia coli) [µg/mL] | MIC (Aspergillus niger) [µg/mL] | MIC (Bacillus subtilis) [µg/mL] |
| --- | --- | --- | --- | --- | --- |
| CC(C)(C)C1CC(=O)CC(C(C)(C)C)N1 (stereo not given) | 8 (≈ 37.9 µM) | 64 (≈ 303 µM) | 64 (≈ 303 µM) | 8 (≈ 37.9 µM) | 8 (≈ 37.9 µM) |
| CCOC(=O)C1C(=O)CC(C(C)(C)C)NC1C(C)(C)C (stereo not given) | 32 (≈ 113 µM) | 128 (≈ 452 µM) | 64 (≈ 226 µM) | 8 (≈ 28.2 µM) | 8 (≈ 28.2 µM) |
| CC(C)(C)C1CC(=NO)CC(C(C)(C)C)N1 (stereo not given) | 16 (≈ 70.7 µM) | > 512 | 256 (≈ 1130 µM) | 64 (≈ 283 µM) | 64 (≈ 283 µM) |
| CC1/C(=N/O)CC(C(C)(C)C)NC1C(C)(C)C (stereo not given) | 8 (≈ 33.3 µM) | 32 (≈ 133 µM) | > 512 | 8 (≈ 33.3 µM) | 16 (≈ 66.6 µM) |
| CCOC(=O)C1/C(=N\O)CC(C(C)(C)C)NC1C(C)(C)C (stereo not given) | 8 (≈ 26.8 µM) | 64 (≈ 214 µM) | 16 (≈ 53.6 µM) | 8 (≈ 26.8 µM) | 64 (≈ 214 µM) |
| CC(C)(C)C1CC(=O)CC(C(C)(C)C)N1N=O (stereo not given) | > 512 | 256 (≈ 1070 µM) | > 512 | > 512 | 16 (≈ 66.6 µM) |
| C[C@@H]1[C@H](O)[C@@H](C)/C=C/C=C/C=C/C=C/C=C/C=C/C=C/[C@H](O[C@@H]2O[C@H](C)[C@@H](O)[C@H](N)[C@@H]2O)C[C@@H]2O[C@](O)(C[C@@H](O)C[C@@H](O)[C@H](O)CC[C@@H](O)C[C@@H](O)CC(=O)O[C@H]1C)C[C@H](O)[C@H]2C(=O)O [AMPHOTERICIN B] | 32 (≈ 34.6 µM) |  |  | 32 (≈ 34.6 µM) |  |
| CCn1cc(C(=O)O)c(=O)c2cc(F)c(N3CCNCC3)cc21 [NORFLOXACIN] |  | 16 (≈ 50.1 µM) | 32 (≈ 100 µM) |  | 16 (≈ 50.1 µM) |

More lines, now with the values ahead:

| MIC (Trichoderma) [µg/mL] | MIC (Klebsiella pneumoniae) [µg/mL] | MIC (Escherichia coli) [µg/mL] | MIC (Aspergillus niger) [µg/mL] | MIC (Bacillus subtilis) [µg/mL] | Compound |
| --- | --- | --- | --- | --- | --- |
| 16 (≈ 71 µM) | > 512 | 256 (≈ 1140 µM) | 8 (≈ 35.5 µM) | 16 (≈ 71 µM) | CC1C(=O)CC(C(C)(C)C)NC1C(C)(C)C (stereo not given) |
| 16 (≈ 59.8 µM) | 128 (≈ 479 µM) | 64 (≈ 239 µM) | 8 (≈ 29.9 µM) | 8 (≈ 29.9 µM) | CC(C)(C)C1CC(=O)CC(C(C)(C)C)N1C(C)(C)C (stereo not given) |
| 16 (≈ 56.8 µM) | 64 (≈ 227 µM) | > 512 | 8 (≈ 28.4 µM) | 16 (≈ 56.8 µM) | CC1C(=O)CC(C(C)(C)C)N(C(C)(C)C)C1C(C)(C)C (stereo not given) |
| > 512 | 256 (≈ 754 µM) | 64 (≈ 189 µM) | > 512 | 16 (≈ 47.1 µM) | CCOC(=O)C1C(=O)CC(C(C)(C)C)N(C(C)(C)C)C1C(C)(C)C (stereo not given) |
| 8 (≈ 31.4 µM) | 512 (≈ 2010 µM) | > 512 | 16 (≈ 62.9 µM) | 16 (≈ 62.9 µM) | CC1C(=O)CC(C(C)(C)C)N(N=O)C1C(C)(C)C (stereo not given) |
| 32 (≈ 102 µM) | 32 (≈ 102 µM) | 64 (≈ 205 µM) | 64 (≈ 205 µM) | 64 (≈ 205 µM) | CCOC(=O)C1C(=O)CC(C(C)(C)C)N(N=O)C1C(C)(C)C (stereo not given) |
